Values quoted from earlier work as cited in patent US6187343A, “Proceeding for the preparation of the prolonged action granule compound containing 4-nitro-2-phenoxymethanesulfonanilide” (priority 1997, dated 2001).

Conditions: in vivo

Q: Which adverse effects does the source give for `CS(=O)(=O)Nc1ccc([N+](=O)[O-])cc1Oc1ccccc1` [NIMESULIDE, 4-nitro-2-phenoxymethanesulfonanilide] here?
A: adverse effects of the digestive type
